Data as given in patent US10966426B2, “Herbicidal compositions comprising phenylpyrimidines” (BASF SE, priority 2016, dated 2021).

Experiments:
Format in all cases: in vivo
Alopecurus myosuroides = experiment: greenhouse post-emergence treatment, ALOMY; settings: Alopecurus myosuroides, 480 h, 20 DAT, ALOMY
Procedure, shortened: (§1)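 Plants were grown in pots of loamy sand with approximately 3.0% humus, either sown directly or transplanted as seedlings a few days before treatment, and sprayed with water-based treatments. They were kept at 10-25° C. or 20-35° C. depending on species and rated visually after 2 to 4 weeks on a 0–100 scale (100 = no emergence or complete destruction of above-ground parts).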

Matricaria chamomilla = experiment: greenhouse post-emergence treatment, MATCH; settings: Matricaria chamomilla, 480 h, 20 DAT, MATCH
Procedure, shortened: (§2)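 Post-emergence greenhouse spray on 3–15 cm plants, sown direct or transplanted a few days before treatment. Scored visually on a 0–100 scale after 2 to 4 weeks; expected additive effect computed by Colby: E=X+Y−(X·Y/100).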

Poa annua = experiment: greenhouse post-emergence treatment, POAAN; settings: Poa annua, 480 h, POAAN, 20 DAT
Procedure, shortened: (§3)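 Greenhouse; post-emergence spray at 3–15 cm; aqueous EC formulation; 2–4 weeks; 0–100 visual score.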

Setaria viridis = experiment: greenhouse post-emergence treatment, SETVI; settings: Setaria viridis, 480 h, 20 DAT, SETVI
Procedure, shortened: as §1

Ambrosia elatior = experiment: greenhouse post-emergence treatment, AMBEL; settings: AMBEL, 20 DAT
Protocol: The culture containers used were plastic pots containing loamy sand with approximately 3.0% of humus as substrate. The seeds of the test plants were sown separately for each species.
For the post-emergence treatment, the test plants were grown to a plant height of from 3 to 15 cm, depending on the plant habit, and only then treated with the active compounds which had been suspended or emulsified in water. To this end, the test plants were either sown directly, and grown in the same containers, or they were first grown separately as seedlings and transplanted into the test containers a few days prior to treatment.
Depending on the species, the plants were kept at 10-25° C. and 20-35° C., respectively.
The test period extended over 2 to 4 weeks. During this time, the plants were tended and their response to the individual treatments was evaluated.
Evaluation was carried out using a scale from 0 to 100. 100 means no emergence of the plants, or complete destruction of at least the above-ground parts, and 0 means no damage or normal course of growth. A good herbicidal activity is given at values of at least 70, and very good herbicidal activity is given at values of at least 85.
The respective stated components A and B, and if appropriate, C were formulated as a 10% by weight strength emulsion concentrate and, with addition of the amount of solvent system, introduced into the spray liquor used for applying the active compound. In the examples, the solvent used was water.
In the examples below, using the method of S. R. Colby (1967) “Calculating synergistic and antagonistic responses of herbicide combinations”, Weeds 15, p. 22ff., the value E, which is expected if the activity of the individual active compounds is only additive, was calculated. E=X+Y−(X·Y/100) where X=effect in percent using herbicide A at an application rate a; • Y=effect in percent using herbicide B at application rate b; • E=expected effect (in %) of herbicide A+herbicide B at application rates a+b.

Bromus sterilis = experiment: greenhouse post-emergence treatment, BROST; settings: Bromus sterilis, 480 h, 20 DAT, BROST
Procedure, shortened: as §1

Brachiaria decumbens = experiment: greenhouse post-emergence treatment, BRADC; settings: Urochloa decumbens, 480 h, 20 DAT, BRADC
Procedure, shortened: as §3

Avena fatua = experiment: greenhouse post-emergence treatment, AVEFA; settings: Avena fatua, 480 h, AVEFA, 20 DAT
Procedure, shortened: as §1

Lolium multiflorum = experiment: greenhouse post-emergence treatment, LOLMU; settings: Lolium multiflorum, 480 h, LOLMU, 20 DAT
Procedure, shortened: as §1

Polygonum convolvulus = experiment: greenhouse post-emergence treatment, POLCO; settings: Fallopia convolvulus, 480 h, 20 DAT, POLCO
Procedure, shortened: as §2

[1] = 120 gai/ha (SL 480 g/l), Table X3, read-out: % activity, solo application
[2] = 240 gai/ha (SL 480 g/l), Table X3, read-out: % activity, solo application
[3] = 30 gai/ha (SL 480 g/l), Table X3, read-out: % activity, solo application
[4] = 60 gai/ha (SL 480 g/l), Table X3, read-out: % activity, solo application
[5] = solo pyridate (WP 45%) 900 gai/ha
[6] = solo pyridate (WP 45%) 112.5 gai/ha
[7] = solo pyridate (WP 45%) 225 gai/ha
[8] = solo pyridate (WP 45%) 450 gai/ha

## CC(C)N1C(=O)c2ccccc2NS1(=O)=O [bentazon]
Alopecurus myosuroides; [1]
  inhibition at 120 g/ha: 0%
Alopecurus myosuroides; [2]
  inhibition at 240 g/ha: 0%
Alopecurus myosuroides; bentazon solo 60 gai/ha
  pest or weed control at 60 g/ha: 0%
Alopecurus myosuroides; bentazon solo 240 gai/ha
  pest or weed control at 240 g/ha: 0%
Matricaria chamomilla; [3]
  inhibition at 30 g/ha: 20%
Matricaria chamomilla; [4]
  inhibition at 60 g/ha: 30%
Matricaria chamomilla; bentazon solo 30 gai/ha
  pest or weed control at 30 g/ha: 0%
Matricaria chamomilla; bentazon solo 60 gai/ha
  pest or weed control at 60 g/ha: 0%
Matricaria chamomilla; bentazon solo 120 gai/ha
  pest or weed control at 120 g/ha: 0%
Poa annua; bentazon solo 60 gai/ha
  pest or weed control at 60 g/ha: 0%
Setaria viridis; [4]
  inhibition at 60 g/ha: 0%
Setaria viridis; [2]
  inhibition at 240 g/ha: 30%
Ambrosia elatior; bentazon solo 30 gai/ha
  % activity: 60%
Ambrosia elatior; bentazon solo 60 gai/ha
  % activity: 60%
Bromus sterilis; [4]
  inhibition at 60 g/ha: 0%
Bromus sterilis; bentazon solo 30 gai/ha
  pest or weed control at 30 g/ha: 0%
Bromus sterilis; bentazon solo 60 gai/ha
  pest or weed control at 60 g/ha: 0%
Bromus sterilis; bentazon solo 120 gai/ha
  pest or weed control at 120 g/ha: 0%
Bromus sterilis; bentazon solo 240 gai/ha
  pest or weed control at 240 g/ha: 0%
Brachiaria decumbens; [3]
  inhibition at 30 g/ha: 0%
Brachiaria decumbens; [4]
  inhibition at 60 g/ha: 0%
Brachiaria decumbens; [1]
  inhibition at 120 g/ha: 0%
Brachiaria decumbens; bentazon solo 30 gai/ha
  pest or weed control at 30 g/ha: 0%
Brachiaria decumbens; bentazon solo 60 gai/ha
  pest or weed control at 60 g/ha: 0%
Brachiaria decumbens; bentazon solo 240 gai/ha
  pest or weed control at 240 g/ha: 20%

## CCCCCCCCSC(=O)Oc1cc(Cl)nnc1-c1ccccc1 [pyridate]
Alopecurus myosuroides; [5]
  pest or weed control at 900 g/ha: 20%
Alopecurus myosuroides; pyridate solo 112.5 gai/ha
  inhibition at 112.5 g/ha: 0%
Alopecurus myosuroides; pyridate solo 225 gai/ha
  inhibition at 225 g/ha: 0%
Alopecurus myosuroides; pyridate solo 450 gai/ha
  inhibition at 450 g/ha: 0%
Alopecurus myosuroides; pyridate solo 900 gai/ha
  inhibition at 900 g/ha: 20%
Avena fatua; [6]
  pest or weed control at 112.5 g/ha: 0%
Avena fatua; [7]
  pest or weed control at 225 g/ha: 0%
Avena fatua; [8]
  pest or weed control at 450 g/ha: 10%
Avena fatua; [5]
  pest or weed control at 900 g/ha: 30%
Avena fatua; pyridate solo 112.5 gai/ha
  inhibition at 112.5 g/ha: 0%
Avena fatua; pyridate solo 225 gai/ha
  inhibition at 225 g/ha: 0%
Avena fatua; pyridate solo 450 gai/ha
  inhibition at 450 g/ha: 10%
Lolium multiflorum; [6]
  pest or weed control at 112.5 g/ha: 0%
Lolium multiflorum; [7]
  pest or weed control at 225 g/ha: 20%
Lolium multiflorum; pyridate solo 112.5 gai/ha
  inhibition at 112.5 g/ha: 0%
Lolium multiflorum; pyridate solo 225 gai/ha
  inhibition at 225 g/ha: 20%
Polygonum convolvulus; pyridate solo 112.5 gai/ha
  inhibition at 112.5 g/ha: 40%
Polygonum convolvulus; pyridate solo 225 gai/ha
  inhibition at 225 g/ha: 50%
Matricaria chamomilla; [6]
  pest or weed control at 112.5 g/ha: 0%
Matricaria chamomilla; [7]
  pest or weed control at 225 g/ha: 0%
Matricaria chamomilla; [8]
  pest or weed control at 450 g/ha: 40%
Matricaria chamomilla; pyridate solo 112.5 gai/ha
  inhibition at 112.5 g/ha: 0%
Matricaria chamomilla; pyridate solo 225 gai/ha
  inhibition at 225 g/ha: 0%
Matricaria chamomilla; pyridate solo 450 gai/ha
  inhibition at 450 g/ha: 40%
Poa annua; [6]
  pest or weed control at 112.5 g/ha: 0%
Poa annua; [7]
  pest or weed control at 225 g/ha: 0%
Poa annua; [8]
  pest or weed control at 450 g/ha: 0%
Setaria viridis; [6]
  pest or weed control at 112.5 g/ha: 15%
Setaria viridis; [7]
  pest or weed control at 225 g/ha: 25%
Setaria viridis; [8]
  pest or weed control at 450 g/ha: 65%
Setaria viridis; pyridate solo 225 gai/ha
  inhibition at 225 g/ha: 25%
Setaria viridis; pyridate solo 450 gai/ha
  inhibition at 450 g/ha: 65%
Setaria viridis; pyridate solo 900 gai/ha
  inhibition at 900 g/ha: 80%
Ambrosia elatior; [6]
  % activity: 0%
Ambrosia elatior; [7]
  % activity: 10%
Ambrosia elatior; Ambrosia artemisiifolia, 480 h, pyridate solo 112.5 gai/ha
  inhibition at 112.5 g/ha: 0%
Ambrosia elatior; Ambrosia artemisiifolia, 480 h, pyridate solo 225 gai/ha
  inhibition at 225 g/ha: 10%
Ambrosia elatior; Ambrosia artemisiifolia, 480 h, pyridate solo 450 gai/ha
  inhibition at 450 g/ha: 85%
Bromus sterilis; [6]
  pest or weed control at 112.5 g/ha: 0%
Bromus sterilis; [7]
  pest or weed control at 225 g/ha: 0%
Bromus sterilis; [5]
  pest or weed control at 900 g/ha: 0%
Brachiaria decumbens; [6]
  pest or weed control at 112.5 g/ha: 0%
Brachiaria decumbens; [7]
  pest or weed control at 225 g/ha: 20%
Brachiaria decumbens; [8]
  pest or weed control at 450 g/ha: 20%
Brachiaria decumbens; [5]
  pest or weed control at 900 g/ha: 50%
Brachiaria decumbens; pyridate solo 112.5 gai/ha
  inhibition at 112.5 g/ha: 0%
Brachiaria decumbens; pyridate solo 225 gai/ha
  inhibition at 225 g/ha: 20%
Brachiaria decumbens; pyridate solo 450 gai/ha
  inhibition at 450 g/ha: 20%
Brachiaria decumbens; pyridate solo 900 gai/ha
  inhibition at 900 g/ha: 50%
